Assays:
Format in all cases: cell-based, Human
[1] = tested on: mitochondrial Akt; test: Akt recruitment to mitochondria in hypoxia, subcellular fractions by Western blotting; details: PC3 cells, 17-AAG 5 μM for 6 hr, NAC 1 mM, MitoTempo 25 μM
Protocol: FIG. 1 illustrates mitochondrial phosphoproteome in hypoxia. A: Phosphoproteome of prostate adenocarcinoma PC3 cells in hypoxia versus normoxia. Identified phosphosites met a minimum MaxQuant localization probability of 0.75 and a score difference of 5. Fold changes were calculated from the normalized Heavy/Light SILAC ratio. Six Akt target proteins showing increased phosphorylation in hypoxia are indicated. […] B: Ingenuity pathway analysis of mitochondrial phospho- and global proteome in hypoxia. […] D: PC3 cells in normoxia (N) or hypoxia (H) were fractionated in cytosol (Cyto) or mitochondrial (Mito) extracts and analyzed by Western blotting. pAkt, phosphorylated Akt (Ser473). TCE, total cell extracts. E: PC3 cells in hypoxia (H) were exposed to reoxygenation (O2) for the indicated time intervals and analyzed by Western blotting. N, normoxia. F: The indicated subcellular fractions isolated from normoxic (N) or hypoxic (H) PC3 cells were analyzed with an antibody to the Akt consensus phosphorylation site RxRxxS/T (Akt cons Ab) by Western blotting. Mito Sup, supernatant of mitochondrial extracts after preclearing with Akt cons Ab. G: PC3 cells in normoxia (N) or hypoxia (H) were treated with vehicle (Veh) or Hsp90 small molecule inhibitor 17-AAG (5 μM for 6 hr), and cytosolic (Cyto) or mitochondrial (Mito) extracts were analyzed by Western blotting. H: PC3 cells in normoxia (N) or hypoxia (H) were treated with vehicle (Veh), the antioxidant N-acetyl cysteine (NAC, 1 mM) or mitochondria-specific ROS scavenger, MitoTempo (MT, 25 μM), and subcellular fractions were analyzed by Western blotting. See also FIG. 9.
Human prostate adenocarcinoma PC3 and DU145, glioblastoma (GBM) LN229, and breast adenocarcinoma MCF-7 or MDA-231 cells were obtained from the American Type Culture Collection (ATCC, Manassas, Va.), and maintained in culture according to the supplier's specifications. Hypoxic treatment was carried out using an enclosed chamber (BioSpherix) flushed with a nitrogen and CO2 gas. […]

[2] = tested on: PC3 cells; test: Cell cycle: DNA content by propidium iodide staining and flow cytometry; details: hypoxia, DCA 10 mM, MK2206 5 μM
Source text: FIG. 13, related to FIG. 5, illustrates additional data regarding mitochondrial Akt signaling supports tumor growth in hypoxia in vivo. A: Human intracranial GBM samples (U251 cells) grown in immunocompromised mice were harvested at the indicated time intervals after stereotactic injection, and the number of mitotic cells was quantified. HPF, high-power microscopy field (n=6-7). Mean±SEM. *, p=0.01. B: Human intracranial GBM samples as in (A) were harvested at day 20 after stereotactic injection of U251 cells in immunocompromised mice, and analyzed for expression of HIF1α, phosphorylated PDK1 (pT346 Ab) or phosphorylated PDHE1α by immunohistochemistry. H&E, hematoxylin and eosin. Yellow lines were used to delineate the tumor mass within mice brain. Scale bar, 100 μm. […] C: Quantification of mitotic cells expressing phosphorylated PDK1 (pT346 Ab) in intracranial GBM harvested from immunocompromised mice at the indicated time intervals (n=5-7). […] D: Intracranial GBM samples as in (A) were analyzed for correlation between HIF1α luciferase activity and the number of PDK1-phosphorylated mitotic cells (pT346 Ab). […], 95% C.I.=0.1-0.9; p=0.02. […] E: PC3 cells in normoxia (N) or hypoxia (H) were treated with vehicle (Veh) or small molecule antagonists of PDK1 (DCA, 10 mM) or Akt (MK2206, 5 μM) and analyzed for DNA content by propidium iodide staining and flow cytometry. […]

[3] = tested on: cleaved caspase 3; test: Cleaved caspase 3 by Western blotting; details: PC3 cells, hypoxia; MK2206 1 μM, PX-866 10 μM
Protocol: FIG. 6 illustrates mitochondrial Akt regulation of stress signaling in hypoxia. A and B: PC3 cells in normoxia (N) or hypoxia (H) were treated with vehicle (Veh) or MK2206 (1 μM) (A) or transduced with pLKO or PDK1-directed shRNA (B) and analyzed for ROS production by CELLROX Green staining and flow cytometry. Upper panels, representative tracings. Bottom panels, quantification of ROS production under the various conditions tested (n=2). Mean±SD for both datasets. *, p=0.01-0.02; **, p=0.004; ns, not significant. C: The experimental conditions are as in (A) and treated cells were analyzed for cell viability by direct cell counting relative to control (n=3). Mean±SEM. ***, p<0.0001. D: PC3 cells in normoxia (N) or hypoxia (H) were incubated with vehicle (Veh) or small molecule inhibitors of Akt (MK2206, 1 μM) or PI3K (PX-866, 10 μM) and analyzed by Western blotting. E: PC3 cells stably silenced for PDK1 were reconstituted with vector, WT PDK1 or T346A PDK1 mutant and analyzed for cell viability by direct cell counting relative to control (n=3). Mean±SEM. ***, p=0.0002. F and G: PC3 cells in normoxia (N) or hypoxia (H) were transduced with pLKO or PDK1-directed shRNA (F) or control siRNA (Ctrl) or Akt1- or Akt2-directed siRNA (G), and analyzed by Western blotting. […] For all panels, data were analyzed using the two-sided unpaired Student's t test. […]

Row | Structure (SMILES) | accumulation / recruitment of Akt to mitochondria [1] | further results
1 | C=CCNC1=C2C[C@@H](C)C[C@H](OC)[C@H](O)[C@@H](C)/C=C(\C)[C@H](OC(N)=O)[C@@H](OC)/C=C\C=C(/C)C(=O)NC(=CC1=O)C2=O [17-AAG, 17-allylaminogeldanamycin] | prevented the accumulation of mitochondrial Akt | –
2 | O=C([O-])C(Cl)Cl.[Na+] [DCA, sodium dichloroacetate] | – | S-phase progression [2]: suppressed S-phase progression; population of tumor cells in G1/sub-G1 phase [2]: increased
3 | CC1(C)CC(NC(=O)C[P+](c2ccccc2)(c2ccccc2)c2ccccc2)CC(C)(C)N1[O] [MitoTempo] | inhibited Akt recruitment to mitochondria | –
4 | CC(=O)N[C@@H](CS)C(=O)O [NAC, N-acetyl cysteine] | no effect | –
5 | C=CCN(/C=C1/C(=O)O[C@H](COC)[C@@]2(C)C1=C(O)C(=O)C1=C2[C@H](OC(C)=O)C[C@]2(C)C(=O)CC[C@@H]12)CC=C [PX-866] | – | cleaved caspase 3 (marker of apoptosis) [3]: did not result in caspase activation

Source: patent publication US11208478B2, “Methods of detecting and treating a tumor expressing pT346 PDK1” (The Wistar Institute of Anatomy and Biology, priority 2016, dated 2021)
